Reference: patent US12138252B2, “Multikinase inhibitors of VEGF and TGF beta and uses thereof” (AIVIVA BIOPHARMA, INC., priority 2017, dated 2024)

How the values were obtained:
rabbit ear wound = assay: Histopathology of rabbit ear wound (neovascularization, fibrosis, re-epithelialization); type: in vivo, New Zealand white rabbits; set-up: key to Total Score: aggregated total of severity grades for microscopic findings; key to Neovascularization / Re-epithelialization: five-step severity grade (minimal, mild, moderate, marked, severe); details: intradermal 1%; for average total score of test wounds lower than untreated wounds by: difference to untreated control; for Total Score / Fibrosis/Collagen / Neovascularization / Re-epithelialization: treated mean, Day 43; for Total Score: aggregation of microscopic findings; for Fibrosis/Collagen / Neovascularization / Re-epithelialization: histology severity grade; for angiogenesis / neovascularization compared with untreated wounds (words) / fibrosis compared with untreated wounds (words): histopathology; for scar formation compared with control sites: overall
Description: (§1) The objective of this study was to examine the effect of test compounds on wound healing and TGF beta expression after dermal injury in a rabbit ear hypertrophic scar model.
(§2) In New Zealand white rabbits, maintained under a surgical plane of anesthesia, trauma stimulation of the skin on the ventral surface of both ears is initiated on Day 1. Trauma sites are evaluated on Days 8, 15, 22, 29, 36, and 43. On days 15 and 29, each site is dosed with test compounds (e.g., 1% w/w, 100 μl) by intradermal or intralesional injections.
At necropsy, each treatment site was harvested and preserved for hematoxylin and […] and Mason's trichrome stainings. Each lesion was examined histologically and graded for neovascularization, fibrosis and re-epithelialization using a five-step/severity grading system (minimal, mild, moderate, marked, and severe). The average total score is an aggregation of these microscopic findings relating to an inflammatory response.

[1] = test system: LL37-induced inflammation; assay: LL37-induced dermal inflammation model in mice, histopathology and CD4/CD8 immunostaining; type: in vivo; details: intradermal LL37 induction, single intradermal injection 1.6 mg, FIG. 2
Description: (§3) In our study, mice were injected subcutaneously with 40 μL of LL-37 (3.3 mg/mL) to induce inflammatory reactions. Immediately following the LL-37 injection, axitinib, nintedanib, and lenvatinib were individually administered as a single intradermal injection (1.6 mg). LL-37 injection was repeated every 12 hours for a total of 4 injections. Endotoxin-free water and dexamethasone (3 mg/kg by intraperitoneal injection, twice), respectively, were used as negative and positive control groups.
At 48 hours after the initial LL-37 injection, the dorsal skin was photographed, and the severity of skin lesions were scored for redness and measured for areas of involvement.
(§4) Mice were then anaesthetized, and tissue samples of lesion sites were excised and fixed for H&E stainings and immunohistochemical analysis. Markers for inflammation (CD4 and CD8) were determined using specific antibodies. TGF beta levels are measured by mRNA expression using qPCR.
The tissue samples were analyzed for inflammation characteristics. Histopathology endpoints included inflammation, and CD4+ and CD8+ T-lymphocyte immunostaining. For inflammation scores, tissues were examined histologically and scored for inflammatory cell infiltrate.

TGF beta1 mRNA = TGF beta1 mRNA expression (qRT-PCR) in rabbit ear hypertrophic scar model; type: in vivo, New Zealand white rabbits; details: 1% w/w 100 μl intradermal on days 15 and 29, Day 43, FIG. 6
Description: as §1, §2
Animals are euthanized on Day 43, and the trauma sites are harvested and frozen for TGF beta analysis using quantitative RT-PCR (qRT-PCR) (e.g., A. K. Johnson et al., Dev. Comp. Immunol., 2006; 30(5): 473-84). TGF beta1 mRNA expression levels in treated trauma samples are compared to the expression level in the untreated trauma sample.

TGF-beta 1 = assay: Dermal TGFb1 levels (ELISA) after linear incisional wound in minipigs; type: in vivo, Gottingen Minipigs; details: minipig incisional wound, approximately 16 mg intradermal once, biopsies days 4, 7, 9, ELISA, FIG. 5
Text: The purpose of this study was to evaluate the topical effects of axitinib, nintedanib, sorafenib and lenvatinib when administered via intradermal injection to the dorsal skin along linear incisions of minipigs. Linear incisional wound was made to elicit inflammatory and wound healing process in the skin. After dosing, animals were observed postdose for 9 days to assess the levels of TGFb1 expressions in the skin.
Three male Gottingen Minipigs® dosed once via intradermal injection along the edges of each of the linear incision wound sites for each animal (wounds on the dorsum, perpendicular to the spine, approximately 3 cm in length and 3 cm distance from the spine). Each incisional wound received approximately 16 mg of the test compound intradermally once along both sides of the linear wound.
On days of 4, 7, and 9 post-dosing, one 4 mm dermal punch biopsy was collected for each incisional wound and processed for TGF-beta 1 analysis with ELISA, using a commercial kit (e.g., the kit from Thermo Fisher or other vendors).

TGFb1 mRNA = TGFb1 mRNA expression (qPCR) in skin of mice after LL-37 challenge; type: in vivo; details: LL37 induced, single intradermal injection 1.6 mg, FIG. 1
Description: as §3, §4

| SMILES | average total score of test wounds lower than untreated wounds by (rabbit ear wound) | Total Score (rabbit ear wound) | Fibrosis/Collagen (rabbit ear wound) | Neovascularization (rabbit ear wound) | Re-epithelialization (rabbit ear wound) | inflammation score (inflammatory cell infiltrate) [1] | mean folds of TGF beta mRNA expression vs untreated wound sample (TGF beta1 mRNA) | angiogenesis / neovascularization compared with untreated wounds (words) (rabbit ear wound) | fibrosis compared with untreated wounds (words) (rabbit ear wound) | angiogenesis / neovascularization compared with untreated wounds (words) (rabbit ear wound; listed as Nintedanib) | fibrosis compared with untreated wounds (words) (rabbit ear wound; listed as Nintedanib) | scar formation compared with control sites (rabbit ear wound) | suppression of TGF beta 1 expression in skin (TGF-beta 1) | TGFb1 mRNA expression relative to LL37 alone (without treatment) (TGFb1 mRNA; 48 hours) | TGFb-1 mRNA expression among all treatment groups (TGFb1 mRNA) | angiogenesis / neovascularization compared with untreated wounds (words) (rabbit ear wound; listed as Sorafenib) |
| --- | --- | --- | --- | --- | --- | --- | --- | --- | --- | --- | --- | --- | --- | --- | --- | --- |
| CNC(=O)c1ccccc1Sc1ccc2c(/C=C/c3ccccn3)n[nH]c2c1 [axitinib] | 1.4 | 4.6 | 3.3 | 1 | 0.3 | – | – | – | – | – | – | – | – | – | – | – |
| COC(=O)c1ccc2c(c1)NC(=O)/C2=C(\Nc1ccc(N(C)C(=O)CN2CCN(C)CC2)cc1)c1ccccc1 [nintedanib] | 1.5 | 4.5 | 3 | 1 | 0.5 | prominent reductions | lower than the expression level in the untreated wound sample | decreased angiogenesis | decreased angiogenesis and fibrosis | much less neovascularization | about the same fibrosis | less scar formation | very effective | – | – | – |
| COc1cc2nccc(Oc3ccc(NC(=O)NC4CC4)c(Cl)c3)c2cc1C(N)=O [lenvatinib] | – | – | – | – | – | prominent reductions | lower than the expression level in the untreated wound sample | – | – | – | – | – | very effective | 79% | lowest TGFb-1 mRNA expression | – |
| CNC(=O)c1cc(Oc2ccc(NC(=O)Nc3ccc(Cl)c(C(F)(F)F)c3)cc2)ccn1 [sorafenib] | – | 5.8 | 2.5 | 3 | 0.3 | – | lower than the expression level in the untreated wound sample | do not show any reduction in angiogenesis | similar, or increased fibrosis | – | – | does not appear to have reduced scar formation | not as effective | – | – | slightly increased neovascularization |
